Some test systems named below: SK-MEL-2 melanoma; K-562 leukemia; A549 NSCLC; MDA-MB-435; HT29 colon; DU-145 prostate; CCRF-CEM leukemia; NCI-H522 lung; SK-MEL-28 melanoma; HCT-15 colon.
Common to all, as to test: NCI anticancer screen, dose series, 48 h

Here are results for 5 compounds from PubChem BioAssay (NCI).

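Exposure lasted 48 hours, with cells grown in 96-well plates and compounds tested at five concentrations. GI50: concentration for 50% inhibition of growth. The concentration for full growth arrest is given as TGI.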

On to `CN(C)CCN1C(=O)c2ccccc2N(C)c2ccccc21`, for which the GI50 in the assay with SK-MEL-2 melanoma, in the assay with K-562 leukemia, with A549 NSCLC, with MDA-MB-435, in the assay with HT29 colon and in the assay on DU-145 prostate was above 100 µM throughout. Also, the GI50 in the assay on CCRF-CEM leukemia, in the assay with NCI-H522 lung, with SK-MEL-28 melanoma and in the assay with HCT-15 colon was above 100 µM each time. Moreover, the TGI with SK-MEL-2 melanoma, in the assay on K-562 leukemia, in the assay on A549 NSCLC, with MDA-MB-435, with HT29 colon and with DU-145 prostate was above 100 µM each time. The TGI with CCRF-CEM leukemia, in the assay with NCI-H522 lung, in the assay on SK-MEL-28 melanoma and in the assay on HCT-15 colon was above 100 µM throughout.

In the case of `COc1ccc(-c2nc(-c3nc4ccc(OC)cc4[nH]3)c3ccccn23)cc1`, the GI50 is 4.07 µM with SK-MEL-2 melanoma; 3.6 µM with K-562 leukemia; 3.17 µM in the assay with A549 NSCLC; 3.14 µM in the assay with MDA-MB-435; 3.75 µM with HT29 colon; 4.11 µM in the assay on DU-145 prostate. Besides, the GI50 in the assay with CCRF-CEM leukemia is 2.53 µM; in the assay on NCI-H522 lung, 2.89 µM; in the assay with SK-MEL-28 melanoma, 18.5 µM; in the assay with HCT-15 colon, 3.76 µM. For the same compound, the TGI is 16.5 µM in the assay with SK-MEL-2 melanoma; above 100 µM with K-562 leukemia; 46.7 µM in the assay with A549 NSCLC; above 100 µM with MDA-MB-435; above 100 µM with HT29 colon; above 100 µM in the assay on DU-145 prostate. Further, the TGI in the assay on CCRF-CEM leukemia was 26.8 µM; in the assay with NCI-H522 lung, 11.2 µM; with SK-MEL-28 melanoma, above 100 µM; in the assay on HCT-15 colon, 90.6 µM.

Take `COc1cc(OC(=O)c2ccccc2)cc2c1C(=O)C=CC2=O`: the TGI is 40.4 µM in the assay with SK-MEL-2 melanoma; 5.36 µM in the assay on K-562 leukemia; 68.4 µM with A549 NSCLC; 12 µM with MDA-MB-435; 39.8 µM with HT29 colon; 34.4 µM with DU-145 prostate. Moreover, the TGI with CCRF-CEM leukemia worked out at 5.63 µM; in the assay on NCI-H522 lung, 12.4 µM; in the assay with SK-MEL-28 melanoma, 34.5 µM; in the assay on HCT-15 colon it was 31.4 µM.

Turning to `COc1ccc(C(=O)c2cc(OC)c(OC)c(OC)c2)cc1OC(=O)CCl`, the GI50 in the assay with SK-MEL-2 melanoma is 0.436 µM; in the assay on K-562 leukemia, below 0.0123 µM; in the assay with A549 NSCLC, 0.164 µM; with MDA-MB-435, below 0.01 µM; with HT29 colon, 1.94 µM; with DU-145 prostate, 0.0322 µM. Also, the GI50 in the assay with CCRF-CEM leukemia was 0.0297 µM; with NCI-H522 lung, 0.0196 µM; in the assay on SK-MEL-28 melanoma, 0.358 µM; in the assay on HCT-15 colon, below 0.0132 µM. Also, the TGI with SK-MEL-2 melanoma, with K-562 leukemia, with A549 NSCLC, in the assay on HT29 colon, in the assay with CCRF-CEM leukemia and in the assay on NCI-H522 lung was above 100 µM each time. Further, the TGI with SK-MEL-28 melanoma and in the assay on HCT-15 colon was above 100 µM in each case.

For `C=C1C(=O)O[C@H]2[C@H]1CC/C(COC(=O)NCc1cn(C)c3ccccc13)=C\CC[C@@]1(C)O[C@@H]21`, the GI50 with SK-MEL-2 melanoma was 2.55 µM; in the assay with K-562 leukemia, 0.369 µM; in the assay with A549 NSCLC, 2.17 µM; in the assay with MDA-MB-435 it was 1.28 µM; in the assay with HT29 colon it was 1.22 µM; in the assay on DU-145 prostate it was 1.26 µM. Also, the GI50 in the assay on CCRF-CEM leukemia was 0.335 µM; in the assay on NCI-H522 lung, 1.02 µM; with SK-MEL-28 melanoma it was 1.43 µM; in the assay on HCT-15 colon, 0.611 µM. Moreover, the TGI stood at 7.79 µM in the assay on SK-MEL-2 melanoma; 9.26 µM in the assay with K-562 leukemia; 7.14 µM in the assay with A549 NSCLC; 3.05 µM with MDA-MB-435; 3 µM in the assay on HT29 colon; 2.55 µM in the assay with DU-145 prostate. Further, the TGI in the assay on CCRF-CEM leukemia is 2.26 µM; with NCI-H522 lung it was 2.44 µM; in the assay with SK-MEL-28 melanoma, 3.01 µM; in the assay with HCT-15 colon, 2.17 µM.
